# Measurements taken from ChEMBL document CHEMBL3865792, “Antioxidant and antitumor activity of trolox, trolox succinate, and α-tocopheryl succinate conjugates with nitroxides” (Eur J Med Chem, 2016).
# System: not listed separately
# Assay: Cytotoxicity against human RPMI8226 cells assessed as reduction in cell viability after 72 hrs by MTT assay
# Assay type: functional, cell-based
# Conditions: RPMI-8226, 72 h
row,Structure (SMILES),IC50 [µM]
1,Cc1c(C)c2c(c(C)c1OC(=O)CCC(=O)O)CC[C@@](C)(CCC[C@H](C)CCC[C@H](C)CCCC(C)C)O2 [(+)-ALPHA-TOCOPHERYL SUCCINATE],63
2,Cc1c(C)c2c(c(C)c1OC(=O)CCC(=O)NC1CC(C)(C)N([O])C1(C)C)CC[C@@](C)(CCC[C@H](C)CCC[C@H](C)CCCC(C)C)O2 (some centres not stated),55

# System: not listed separately
# Assay: Genotoxicity in Escherichia coli PQ37 expressing lacZ gene assessed as ratio of inducible beta-galactosidase activity to alkaline phosphatase activity at 30 mM after 2 hrs by SOS-chromotest relative to control
# Assay type: toxicity
# Conditions: Escherichia coli PQ37 cells expressing lacZ gene, read-out: FC
row,Structure (SMILES),"fold induction at 2 h, 30000 µM"
1,Cc1c(C)c2c(c(C)c1OC(=O)CCC(=O)O)CC[C@@](C)(CCC[C@H](C)CCC[C@H](C)CCCC(C)C)O2 [(+)-ALPHA-TOCOPHERYL SUCCINATE],1.1
2,Cc1c(C)c2c(c(C)c1OC(=O)CCC(=O)NC1CC(C)(C)N([O])C1(C)C)CC[C@@](C)(CCC[C@H](C)CCC[C@H](C)CCCC(C)C)O2 (some centres not stated),0.8

# System: Salmonella typhimurium
# Assay: Genotoxicity in Salmonella typhimurium TA102 harboring […] mutant assessed as frequency of reversion from histidine auxotrophy to prototrophy at 30 mM after 48 hrs by Ames test (reference value: 209 +/- 10 No _unit)
# Assay type: toxicity, organism-based
# Conditions: salmonella enterica subsp. enterica serovar typhimurium, 30000 µM
row,Structure (SMILES),Activity
1,Cc1c(C)c2c(c(C)c1OC(=O)CCC(=O)O)CC[C@@](C)(CCC[C@H](C)CCC[C@H](C)CCCC(C)C)O2 [(+)-ALPHA-TOCOPHERYL SUCCINATE],216
2,Cc1c(C)c2c(c(C)c1OC(=O)CCC(=O)NC1CC(C)(C)N([O])C1(C)C)CC[C@@](C)(CCC[C@H](C)CCC[C@H](C)CCCC(C)C)O2 (some centres not stated),227

# System: not listed separately
# Assay: Ratio of IC50 for human MT4 cells to concentration causing antioxidant activity in Salmonella typhimurium TA102 harboring […] mutant
# Assay type: functional
# Conditions: not given
row,Structure (SMILES),Ratio
1,Cc1c(C)c2c(c(C)c1OC(=O)CCC(=O)NC1CC(C)(C)N([O])C1(C)C)CC[C@@](C)(CCC[C@H](C)CCC[C@H](C)CCCC(C)C)O2 (some centres not stated),100 - 1000

# System: not listed separately
# Assay: Cytotoxicity against human MCF7 cells assessed as reduction in cell viability after 72 hrs by MTT assay
# Assay type: functional, cell-based
# Conditions: MCF7, 72 h
row,Structure (SMILES),IC50 [µM]
1,Cc1c(C)c2c(c(C)c1OC(=O)CCC(=O)O)CC[C@@](C)(CCC[C@H](C)CCC[C@H](C)CCCC(C)C)O2 [(+)-ALPHA-TOCOPHERYL SUCCINATE],57
2,Cc1c(C)c2c(c(C)c1OC(=O)CCC(=O)NC1CC(C)(C)N([O])C1(C)C)CC[C@@](C)(CCC[C@H](C)CCC[C@H](C)CCCC(C)C)O2 (some centres not stated),95

# System: not listed separately
# Assay: Cytotoxicity against mouse LMTK cells assessed as reduction in cell viability after 72 hrs by MTT assay
# Assay type: toxicity
# Conditions: not given
row,Structure (SMILES),IC50 at 72 h [µM]
1,Cc1c(C)c2c(c(C)c1OC(=O)CCC(=O)O)CC[C@@](C)(CCC[C@H](C)CCC[C@H](C)CCCC(C)C)O2 [(+)-ALPHA-TOCOPHERYL SUCCINATE],73
2,Cc1c(C)c2c(c(C)c1OC(=O)CCC(=O)NC1CC(C)(C)N([O])C1(C)C)CC[C@@](C)(CCC[C@H](C)CCC[C@H](C)CCCC(C)C)O2 (some centres not stated),> 300

# System: not listed separately
# Assay: Cytotoxicity against human HepG2 cells assessed as reduction in cell viability after 72 hrs by MTT assay
# Assay type: functional, cell-based
# Conditions: HepG2, 72 h
row,Structure (SMILES),IC50 [µM]
1,Cc1c(C)c2c(c(C)c1OC(=O)CCC(=O)O)CC[C@@](C)(CCC[C@H](C)CCC[C@H](C)CCCC(C)C)O2 [(+)-ALPHA-TOCOPHERYL SUCCINATE],245
2,Cc1c(C)c2c(c(C)c1OC(=O)CCC(=O)NC1CC(C)(C)N([O])C1(C)C)CC[C@@](C)(CCC[C@H](C)CCC[C@H](C)CCCC(C)C)O2 (some centres not stated),> 300

# System: not listed separately
# Assay: Ratio of IC50 for human CEM13 cells to concentration causing antioxidant activity in Salmonella typhimurium TA102 harboring […] mutant
# Assay type: functional
# Conditions: not given
row,Structure (SMILES),Ratio
1,Cc1c(C)c2c(c(C)c1OC(=O)CCC(=O)NC1CC(C)(C)N([O])C1(C)C)CC[C@@](C)(CCC[C@H](C)CCC[C@H](C)CCCC(C)C)O2 (some centres not stated),100 - 1000

# System: not listed separately
# Assay: Ratio of IC50 for human MCF7 cells to concentration causing antioxidant activity in Salmonella typhimurium TA102 harboring […] mutant
# Assay type: functional
# Conditions: not given
row,Structure (SMILES),Ratio
1,Cc1c(C)c2c(c(C)c1OC(=O)CCC(=O)NC1CC(C)(C)N([O])C1(C)C)CC[C@@](C)(CCC[C@H](C)CCC[C@H](C)CCCC(C)C)O2 (some centres not stated),100 - 1000

# System: Salmonella enterica subsp. enterica serovar Typhimurium
# Assay: Antioxidant activity in Salmonella typhimurium TA102 harboring […] mutant assessed as inhibition of t-BuO2H-dependant mutant formation at 0.3 uM preincubated with compound followed by t-BuO2H addition after 48 hrs by Ames test
# Assay type: functional
# Conditions: not given
row,Structure (SMILES),inhibition [%]
1,Cc1c(C)c2c(c(C)c1OC(=O)CCC(=O)O)CC[C@@](C)(CCC[C@H](C)CCC[C@H](C)CCCC(C)C)O2 [(+)-ALPHA-TOCOPHERYL SUCCINATE],56
2,Cc1c(C)c2c(c(C)c1OC(=O)CCC(=O)NC1CC(C)(C)N([O])C1(C)C)CC[C@@](C)(CCC[C@H](C)CCC[C@H](C)CCCC(C)C)O2 (some centres not stated),21

# System: not listed separately
# Assay: Cytotoxicity against human CEM13 cells assessed as reduction in cell viability at 300 uM after 72 hrs by MTT assay
# Assay type: functional
# Conditions: CEM13, 72 h
row,Structure (SMILES),inhibition at 300 µM [%]
1,Cc1c(C)c2c(c(C)c1OC(=O)CCC(=O)O)CC[C@@](C)(CCC[C@H](C)CCC[C@H](C)CCCC(C)C)O2 [(+)-ALPHA-TOCOPHERYL SUCCINATE],40
2,Cc1c(C)c2c(c(C)c1OC(=O)CCC(=O)NC1CC(C)(C)N([O])C1(C)C)CC[C@@](C)(CCC[C@H](C)CCC[C@H](C)CCCC(C)C)O2 (some centres not stated),34

# System: Salmonella enterica subsp. enterica serovar Typhimurium
# Assay: Antioxidant activity in Salmonella typhimurium TA102 harboring […] mutant assessed as inhibition of t-BuO2H-dependant mutant formation at 30 uM preincubated with compound followed by t-BuO2H addition after 48 hrs by Ames test
# Assay type: functional
# Conditions: not given
row,Structure (SMILES),inhibition [%]
1,Cc1c(C)c2c(c(C)c1OC(=O)CCC(=O)O)CC[C@@](C)(CCC[C@H](C)CCC[C@H](C)CCCC(C)C)O2 [(+)-ALPHA-TOCOPHERYL SUCCINATE],63.6
2,Cc1c(C)c2c(c(C)c1OC(=O)CCC(=O)NC1CC(C)(C)N([O])C1(C)C)CC[C@@](C)(CCC[C@H](C)CCC[C@H](C)CCCC(C)C)O2 (some centres not stated),12

# System: not listed separately
# Assay: Ratio of IC50 for human U937 cells to concentration causing antioxidant activity in Salmonella typhimurium TA102 harboring […] mutant
# Assay type: functional, U-937
# Conditions: not given
row,Structure (SMILES),Ratio
1,Cc1c(C)c2c(c(C)c1OC(=O)CCC(=O)NC1CC(C)(C)N([O])C1(C)C)CC[C@@](C)(CCC[C@H](C)CCC[C@H](C)CCCC(C)C)O2 (some centres not stated),100 - 1000

# System: Salmonella enterica subsp. enterica serovar Typhimurium
# Assay: Antioxidant activity in Salmonella typhimurium TA102 harboring […] mutant assessed as inhibition of t-BuO2H-dependant mutant formation at 3 uM preincubated with compound followed by t-BuO2H addition after 48 hrs by Ames test
# Assay type: functional
# Conditions: not given
row,Structure (SMILES),inhibition [%]
1,Cc1c(C)c2c(c(C)c1OC(=O)CCC(=O)O)CC[C@@](C)(CCC[C@H](C)CCC[C@H](C)CCCC(C)C)O2 [(+)-ALPHA-TOCOPHERYL SUCCINATE],63.2
2,Cc1c(C)c2c(c(C)c1OC(=O)CCC(=O)NC1CC(C)(C)N([O])C1(C)C)CC[C@@](C)(CCC[C@H](C)CCC[C@H](C)CCCC(C)C)O2 (some centres not stated),29

# System: not listed separately
# Assay: Ratio of IC50 for human HEPG2 cells to concentration causing antioxidant activity in Salmonella typhimurium TA102 harboring […] mutant
# Assay type: functional
# Conditions: not given
row,Structure (SMILES),Ratio
1,Cc1c(C)c2c(c(C)c1OC(=O)CCC(=O)NC1CC(C)(C)N([O])C1(C)C)CC[C@@](C)(CCC[C@H](C)CCC[C@H](C)CCCC(C)C)O2 (some centres not stated),100 - 1000

# System: not listed separately
# Assay: Cytotoxicity against hamster AG17-1 cells assessed as reduction in cell viability at 300 uM after 72 hrs by MTT assay
# Assay type: toxicity, cell-based, Cricetulus griseus
# Conditions: Chinese hamster, read-out: INH
row,Structure (SMILES),"cytotoxicity at 72 h, 300 µM [%]"
1,Cc1c(C)c2c(c(C)c1OC(=O)CCC(=O)NC1CC(C)(C)N([O])C1(C)C)CC[C@@](C)(CCC[C@H](C)CCC[C@H](C)CCCC(C)C)O2 (some centres not stated),38

# System: not listed separately
# Assay: Cytotoxicity against hamster AG17-1 cells assessed as reduction in cell viability after 72 hrs by MTT assay
# Assay type: toxicity, cell-based, Cricetulus griseus
# Conditions: Chinese hamster
row,Structure (SMILES),IC50 at 72 h [µM]
1,Cc1c(C)c2c(c(C)c1OC(=O)CCC(=O)O)CC[C@@](C)(CCC[C@H](C)CCC[C@H](C)CCCC(C)C)O2 [(+)-ALPHA-TOCOPHERYL SUCCINATE],50
2,Cc1c(C)c2c(c(C)c1OC(=O)CCC(=O)NC1CC(C)(C)N([O])C1(C)C)CC[C@@](C)(CCC[C@H](C)CCC[C@H](C)CCCC(C)C)O2 (some centres not stated),> 300

# System: not listed separately
# Assay: Cytotoxicity against human CEM13 cells assessed as reduction in cell viability after 72 hrs by MTT assay
# Assay type: functional, cell-based
# Conditions: CEM13, 72 h
row,Structure (SMILES),IC50 [µM]
1,Cc1c(C)c2c(c(C)c1OC(=O)CCC(=O)O)CC[C@@](C)(CCC[C@H](C)CCC[C@H](C)CCCC(C)C)O2 [(+)-ALPHA-TOCOPHERYL SUCCINATE],> 300
2,Cc1c(C)c2c(c(C)c1OC(=O)CCC(=O)NC1CC(C)(C)N([O])C1(C)C)CC[C@@](C)(CCC[C@H](C)CCC[C@H](C)CCCC(C)C)O2 (some centres not stated),> 300

# System: not listed separately
# Assay: Cytotoxicity against human MT4 cells assessed as reduction in cell viability after 72 hrs by MTT assay
# Assay type: functional, cell-based
# Conditions: MT4, 72 h
row,Structure (SMILES),IC50 [µM]
1,Cc1c(C)c2c(c(C)c1OC(=O)CCC(=O)O)CC[C@@](C)(CCC[C@H](C)CCC[C@H](C)CCCC(C)C)O2 [(+)-ALPHA-TOCOPHERYL SUCCINATE],66
2,Cc1c(C)c2c(c(C)c1OC(=O)CCC(=O)NC1CC(C)(C)N([O])C1(C)C)CC[C@@](C)(CCC[C@H](C)CCC[C@H](C)CCCC(C)C)O2 (some centres not stated),87

# System: not listed separately
# Assay: Cytotoxicity against human U937 cells assessed as reduction in cell viability after 72 hrs by MTT assay
# Assay type: functional, cell-based
# Conditions: U-937, 72 h
row,Structure (SMILES),IC50 [µM]
1,Cc1c(C)c2c(c(C)c1OC(=O)CCC(=O)O)CC[C@@](C)(CCC[C@H](C)CCC[C@H](C)CCCC(C)C)O2 [(+)-ALPHA-TOCOPHERYL SUCCINATE],113
2,Cc1c(C)c2c(c(C)c1OC(=O)CCC(=O)NC1CC(C)(C)N([O])C1(C)C)CC[C@@](C)(CCC[C@H](C)CCC[C@H](C)CCCC(C)C)O2 (some centres not stated),69

# System: not listed separately
# Assay: Cytotoxicity against human HepG2 cells assessed as reduction in cell viability at 300 uM after 72 hrs by MTT assay
# Assay type: functional
# Conditions: HepG2, 72 h
row,Structure (SMILES),inhibition at 300 µM [%]
1,Cc1c(C)c2c(c(C)c1OC(=O)CCC(=O)NC1CC(C)(C)N([O])C1(C)C)CC[C@@](C)(CCC[C@H](C)CCC[C@H](C)CCCC(C)C)O2 (some centres not stated),38

# System: not listed separately
# Assay: Cytotoxicity against mouse LMTK cells assessed as reduction in cell viability at 300 uM after 72 hrs by MTT assay
# Assay type: toxicity
# Conditions: read-out: INH
row,Structure (SMILES),"cytotoxicity at 72 h, 300 µM [%]"
1,Cc1c(C)c2c(c(C)c1OC(=O)CCC(=O)NC1CC(C)(C)N([O])C1(C)C)CC[C@@](C)(CCC[C@H](C)CCC[C@H](C)CCCC(C)C)O2 (some centres not stated),30

# System: not listed separately
# Assay: Ratio of IC50 for human RPMI8226 cells to concentration causing antioxidant activity in Salmonella typhimurium TA102 harboring […] mutant
# Assay type: functional, RPMI-8226
# Conditions: not given
row,Structure (SMILES),Ratio
1,Cc1c(C)c2c(c(C)c1OC(=O)CCC(=O)NC1CC(C)(C)N([O])C1(C)C)CC[C@@](C)(CCC[C@H](C)CCC[C@H](C)CCCC(C)C)O2 (some centres not stated),100 - 1000
